The target of assay [1] is T1, GBA in mouse brain lysate (Mus musculus, UniProt P17439).
T1 construct: from tissue; host or cells: mouse brain
T1 sequence (P17439 20-515): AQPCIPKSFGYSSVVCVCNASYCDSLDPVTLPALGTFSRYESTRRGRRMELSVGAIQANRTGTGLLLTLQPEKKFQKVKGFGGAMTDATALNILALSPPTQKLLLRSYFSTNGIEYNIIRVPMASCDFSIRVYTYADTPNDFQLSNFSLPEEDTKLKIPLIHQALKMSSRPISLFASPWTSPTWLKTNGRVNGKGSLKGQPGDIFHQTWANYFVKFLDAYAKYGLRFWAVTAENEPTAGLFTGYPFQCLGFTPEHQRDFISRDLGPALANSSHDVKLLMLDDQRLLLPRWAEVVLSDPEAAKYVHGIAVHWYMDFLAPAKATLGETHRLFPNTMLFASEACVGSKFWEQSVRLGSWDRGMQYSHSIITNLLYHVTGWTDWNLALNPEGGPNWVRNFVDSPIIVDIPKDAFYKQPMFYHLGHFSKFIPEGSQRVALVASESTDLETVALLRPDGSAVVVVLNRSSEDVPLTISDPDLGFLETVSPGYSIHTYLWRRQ
As to the kind of experiment: Fluorescent labeling of mouse brain lysate, GBA. The assay is classed as biochemical. Particulars: 37 °C. The method, then: We next investigated their labeling efficiency and selectivity toward GBA in mouse brain lysate at pH 5.2 (containing 0.2 % taurocholate and 0.1 % Triton‐100) and pH 5.8 as respective optimal conditions for GBA and GBA2 activities (Figure 7). […] Importantly, no labelling of GBA2 was observed up to 1000 nM, showing good GBA selectivity.
Labeling by broad‐spectrum β‐glucosidase ABP 8 is shown for comparison (100 nM, pH 5.2 or pH 5.8, 30 min, 37 °C).
Fluorescent labeling with broad‐spectrum ABP 8 was performed at 100 nM ABP concentration at 37 °C for 30 min at pH 5.2 (with 0.1 % (v/v) Triton X‐100 and 0.2 % (w/v) sodium taurocholate) or pH 5.8 respectively. Samples were then denatured with 4 μL Laemmli (5x) sample buffer and heated at 98 °C for 5 minutes. Proteins were resolved by electrophoresis in 10 % SDS‐PAGE gels, running at a constant of 90 V for 30 minutes followed by 120 V for approximately 60 minutes. Wet slab gels were scanned on fluorescence using a Typhoon FLA9500 Imager (GE Healthcare) using λEX 635 nm; λEM >665 nm and images were processed using ImageLab 5.2.1 (BioRad).

The target in assay [2] is T2, overexpressed GBA2 in HEK293T cells (Homo sapiens, UniProt Q9HCG7).
T2 construct: expressed in transfected cells; host or cells: HEK293T
T2 sequence (Q9HCG7 1-927): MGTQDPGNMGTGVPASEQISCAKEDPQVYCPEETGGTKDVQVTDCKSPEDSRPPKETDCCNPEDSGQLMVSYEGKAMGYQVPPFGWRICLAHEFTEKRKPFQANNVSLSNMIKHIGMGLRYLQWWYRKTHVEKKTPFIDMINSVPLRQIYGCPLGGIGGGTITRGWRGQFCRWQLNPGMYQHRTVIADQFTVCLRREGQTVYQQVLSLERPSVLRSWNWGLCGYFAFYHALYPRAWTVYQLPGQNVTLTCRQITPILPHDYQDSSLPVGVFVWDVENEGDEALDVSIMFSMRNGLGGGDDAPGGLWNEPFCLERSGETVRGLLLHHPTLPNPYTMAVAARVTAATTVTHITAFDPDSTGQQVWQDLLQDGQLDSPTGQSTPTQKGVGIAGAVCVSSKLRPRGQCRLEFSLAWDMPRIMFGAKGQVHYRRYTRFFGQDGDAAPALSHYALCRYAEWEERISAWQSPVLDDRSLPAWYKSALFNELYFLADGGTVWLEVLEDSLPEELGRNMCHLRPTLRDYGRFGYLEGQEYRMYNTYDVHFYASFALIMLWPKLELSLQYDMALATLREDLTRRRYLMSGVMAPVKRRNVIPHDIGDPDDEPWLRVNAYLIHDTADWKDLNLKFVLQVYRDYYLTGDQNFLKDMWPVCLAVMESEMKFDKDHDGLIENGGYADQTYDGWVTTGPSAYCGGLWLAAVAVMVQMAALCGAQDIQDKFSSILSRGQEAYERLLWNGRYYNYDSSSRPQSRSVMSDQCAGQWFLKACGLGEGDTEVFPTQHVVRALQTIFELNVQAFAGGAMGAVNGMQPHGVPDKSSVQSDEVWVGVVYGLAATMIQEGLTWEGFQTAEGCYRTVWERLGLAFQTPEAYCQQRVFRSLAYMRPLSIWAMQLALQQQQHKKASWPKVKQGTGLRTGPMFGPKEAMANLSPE
Nature of the assay: In situ labeling of GBA2 in living HEK293T cells (gel-based ABPP). The format is cell-based. Particulars: HEK293T cells overexpressing GBA2, 1–1000 nM, 24 h, 37 °C. The procedure:
HEK293T cells containing endogenous GBA and overexpressed GBA2 were treated with the ABPs at different concentrations (1–1000 nM) for 24 hr. Cells were then washed, lysed and the fluorescence was visualized by gel‐based ABPP (Figure 8).
CBB, Coomassie Brilliant Blue staining (bottom panel).
Labelling of HEK293T cells, containing endogenous GBA and overexpressed GBA2, with ABPs 6, 8 and 9 was conducted based on previously described methods[69] as outlined in the Supporting Information (page 7).
Cy5 tetrazine 20 (2.83 mg, 4.3 µmol) was added to a solution of norbornene 19 (0.94 mg, 2.38 µmol) in MeOH (4 mL). After stirring overnight at rt, the reaction mixture was concentrated in vacuo and purified by HPLC under neutral conditions (A: 50 mM NH4HCO3 in H2O; B: MeCN; 49% → 52%, A in […]
Biochemical Methods: General Experimental Details
Recombinant human GBA (rhGBA, imiglucerase, Cerezyme®) and GAA (rhGAA, alglucosidase alfa, Myozyme) were obtained from Sanofi Genzyme (Cambridge, MA, USA). HEK293T (CRL-3216) cell lines were purchased from ATCC (Manassas, VA, USA). Cell lines were […]
(1 picture or pasted object on this page, not shown here)

For `CCCCCCCCN1[C@@H]2[C@H](Cn3cc(CNC(=O)CCCCC[N+]4=C(/C=C/C=C/C=C5/N(C)c6ccccc6C5(C)C)C(C)(C)c5ccccc54)nn3)[C@@H](O)[C@H](O)[C@@H](O)[C@@H]21` (stereo partly drawn) [ABP 6], the “ABP concentration with significant labeling of GBA” value in assay [1] (pH 5.2 with 0.2 % taurocholate and 0.1 % Triton, 30 min) worked out at 10 nM; in assay [1] (pH 5.8, 30 min), 1000 nM. Moreover, in assay [2], the “ABP concentration at which in situ labeling of GBA2 is observed” value is 100 nM.

Source of the values: paper PMC9298352, “Design, Synthesis and Structural Analysis of Glucocerebrosidase Imaging Agents” (Chemistry (Weinheim an Der Bergstrasse, Germany), 2021).
